According to US8969395B2, “Triterpenoid derivatives useful as antiproliferative agents” (Universidade de Coimbra, priority 2009, dated 2015):

How the values were obtained:
Assay type in all cases: cell-based
[1] = test system: HT-29 (human colon adenocarcinoma); assay: Cytotoxic activity, HT-29; conditions: mean ±SD
Experimental: Compounds presented in Table 6 were also tested in the following cell lines: PC-3 (human prostate adenocarcinoma), LNCaP (human prostate adenocarcinoma), LAPC4 (human prostate adenocarcinoma) and HT-29 (human colon adenocarcinoma).

[2] = test system: HepG2 (human hepatocellular carcinoma); assay: Cytotoxic activity, MTT assay, HepG2; conditions: 72 h, mean ±SD
Experimental: (§1) The cytotoxic of compounds of formulas (I) and (II) 14-50 was assessed towards human cancer (HepG2, HeLa and Jurkat) cell lines (Table 3 below). Compounds presented on Table 4 were also tested against a non-tumoral liver cell line (Chang liver). The cell viability of HeLa, HepG2 and Chang liver cells was determined by the MTT assay. Briefly, exponentially growing cells were plated in 96-well plates at a density of 1×10^3, 8×10^3 and 5×10^3 cells/well respectively and incubated for 24 h before treatment. The grown medium was replaced with one contained the tested compounds dissolved in DMSO (final DMSO concentration <0.1%) at different concentrations, in triplicate wells, and cells were incubated for 72 h. After incubation with the compounds, the medium was removed and MTT solution (0.5 mg/ml, 100 μl) was added to each well and the plates were incubated again for 1 h. DMSO (100 μl) was then added to dissolve the formazan crystals and the plates were immediately read at 550 nm on an ELISA plate reader (Tecan Sunrise MR20-301, TECAN, Austria). For the Jurkat cells, the cell viability was determined by the XTT assay. Briefly, exponentially growing cells were plated in 96-well plates at a density of 5.5×10^3 cells/well, treated with different concentrations of compounds in triplicate and incubated for 72 h. After incubation with the compounds the XTT labeling mixture (100 μl) were added to each of the wells and after a 4 h incubation period the plates were read at 450 nm on an ELISA plate reader. […] Known for its cytotoxic activity, betulinic acid 2 was used as a positive control in this experimentation. […] All the IC50 results represent an average of a minimum of three experiments and were expressed as means±standard deviation (SD).

Jurkat (human leukemia) = assay: Cytotoxic activity, XTT assay, Jurkat; conditions: 72 h, mean ±SD
Experimental: as §1

[3] = test system: HeLa (human cervical adenocarcinoma); assay: Cytotoxic activity, MTT assay, HeLa; conditions: 72 h, mean ±SD
Experimental: The cytotoxic of compounds of formulas (I) and (II) 14-50 was assessed towards human cancer (HepG2, HeLa and Jurkat) cell lines (Table 3 below). Compounds presented on Table 4 were also tested against a non-tumoral liver cell line (Chang liver). The cell viability of HeLa, HepG2 and Chang liver cells was determined by the MTT assay. Briefly, exponentially growing cells were plated in 96-well plates at a density of 1×10^3, 8×10^3 and 5×10^3 cells/well respectively and incubated for 24 h before treatment. The grown medium was replaced with one contained the tested compounds dissolved in DMSO (final DMSO concentration <0.1%) at different concentrations, in triplicate wells, and cells were incubated for 72 h. After incubation with the compounds, the medium was removed and MTT solution (0.5 mg/ml, 100 μl) was added to each well and the plates were incubated again for 1 h. DMSO (100 μl) was then added to dissolve the formazan crystals and the plates were immediately read at 550 nm on an ELISA plate reader (Tecan Sunrise MR20-301, TECAN, Austria). For the Jurkat cells, the cell viability was determined by the XTT assay. Briefly, exponentially growing cells were plated in 96-well plates at a density of 5.5×10^3 cells/well, treated with different concentrations of compounds in triplicate and incubated for 72 h. After incubation with the compounds the XTT labeling mixture (100 μl) were added to each of the wells and after a 4 h incubation period the plates were read at 450 nm on an ELISA plate reader. […] Known for its cytotoxic activity, betulinic acid 2 was used as a positive control in this experimentation.

Structure (SMILES) | IC50 [1] [µM] | IC50 [2] [µM] | IC50 (Jurkat (human leukemia)) [µM] | IC50 [3] [µM]
C=C(COC)[C@@H]1CC[C@]2(COC(=O)n3ccnc3C)CC[C@]3(C)[C@H](CC[C@@H]4[C@@]5(C)CC[C@H](O)C(C)(C)[C@@H]5CC[C@]43C)[C@@H]12 [Compound 36, 3β-hydroxy-30-methoxylup-20(29)-en-28-yl-2′-methyl-1H-imidazole-1-carboxylate] | 10.4 ± 1.6 | 14.4 ± 1.3 | 24.8 ± 4.7 | 8.9 ± 2.1
Cc1nccn1C(=O)OC[C@]12CC[C@@H]([C@@H](C)C=O)C1[C@H]1CC[C@@H]3[C@@]4(C)CC[C@H](O)C(C)(C)[C@@H]4CC[C@@]3(C)[C@]1(C)CC2 (stereo partly drawn) [Compound 42, 3β-hydroxy-(20R)-lupan-29-oxo-28-yl-2′-methyl-1H-imidazole-1-carboxylate] | 15.8 ± 1.7 | 14.3 ± 2.4 | 21.3 ± 4.1 | 16.6 ± 1.5
C=C(C)[C@@H]1CC[C@]2(C(=O)n3ccnc3C)CC[C@]3(C)[C@H](CC[C@@H]4[C@@]5(C)CCC(=O)C(C)(C)[C@@H]5CC[C@]43C)[C@@H]12 [Compound 45, 28-(2′-methyl-1H-imidazol-1-yl)-lup-20(29)-en-3,28-dione] | 4.7 ± 1.1 | 5.5 ± 1.1 | 9.3 ± 2.2 | 4.2 ± 1.2
C=C(C)[C@@H]1CC[C@]2(C(=O)n3ccnc3C)CC[C@]3(C)[C@H](CC[C@@H]4[C@@]5(C)C=CC(=O)C(C)(C)[C@@H]5CC[C@]43C)[C@@H]12 [Compound 47, 28-(2′-methyl-1H-imidazol-1-yl)-lup-1,20(29)-dien-3,28-dione] | 5.9 ± 0.3 | 12.7 ± 1.2 | 9.4 ± 0.8 | 6.4 ± 0.8
C=C(C)[C@@H]1CC[C@]2(C(=O)O)CC[C@]3(C)[C@H](CC[C@@H]4[C@@]5(C)C=C(OC(=O)n6ccnc6C)C(=O)C(C)(C)[C@@H]5CC[C@]43C)[C@@H]12 [Compound 50, 2-(2′-methyl-1H-imidazole-1-carbonyloxy)-3-oxolup-1,20(29)-dien-28-oic acid] | 9 ± 1.7 | 6.8 ± 1.5 | 12.5 ± 1.2 | 10.6 ± 0.7
